# Test system: Radical scavenging activity
# Experiment: Antioxidant activity assessed as DPPH free radical scavenging activity after 30 mins by spectrophotometric assay
row,Compound,IC50
1,O=c1cc(-c2ccc(O)c(O)c2)oc2cc(O[C@@H]3O[C@H](CO)[C@@H](O)[C@H](O)[C@H]3O)c(O)c(O)c12,11 µM
2,O=C(/C=C/c1ccc(O)cc1)OC[C@H]1O[C@@H](OCCc2ccc(O)c(O)c2)[C@H](O)[C@@H](O)[C@@H]1O,18 µM
3,O=C1C[C@@H](c2ccc(O)c(O)c2)Oc2cc(O[C@@H]3O[C@H](CO)[C@@H](O)[C@H](O)[C@H]3O[C@@H]3O[C@H](CO)[C@@H](O)[C@H](O)[C@H]3O)cc(O)c21,12 µM
4,O=c1cc(-c2ccc(O)c(O)c2)oc2cc(O[C@@H]3O[C@H](CO)[C@@H](O)[C@H](O)[C@H]3O[C@@H]3O[C@H](CO)[C@@H](O)[C@H](O)[C@H]3O)cc(O)c12,12 µM
5,Cc1cc(C(C)(C)C)c(O)c(C(C)(C)C)c1 [BUTYLATED HYDROXYTOLUENE],40 µM
6,C[C@@H]1O[C@@H](OC[C@H]2O[C@@H](OCCc3ccc(O)c(O)c3)[C@H](O)[C@@H](O)[C@@H]2OC(=O)/C=C/c2ccc(O)c(O)c2)[C@H](O)[C@H](O)[C@H]1O [FORSYTHIASIDE],21 µM

# The remaining compounds from weak to strong by IC50, led by results:
row,IC50,Compound
1,20 µM,C[C@@H]1O[C@@H](O[C@@H]2[C@@H](O)[C@H](OCCc3ccc(O)c(O)c3)O[C@H](CO)[C@H]2OC(=O)/C=C/c2ccc(O)c(O)c2)[C@H](O)[C@H](O)[C@H]1O [ACETOSIDE]
2,20 µM,C[C@@H]1O[C@@H](O[C@@H]2[C@@H](O)[C@H](OCCc3ccc(O)c(O)c3)O[C@H](COC(=O)/C=C/c3ccc(O)c(O)c3)[C@H]2O)[C@H](O)[C@H](O)[C@H]1O [ISOACTEOSIDE]
3,8 µM,O=c1cc(-c2ccc(O)c(O)c2)oc2cc(O[C@@H]3O[C@H](CO)[C@@H](O)[C@H](O[C@@H]4O[C@H](CO)[C@@H](O)[C@H](O)[C@H]4O)[C@H]3O)c(O)c(O)c12
